One series relates to mice. The conditions noted are these: cited from earlier work.
The next series has as its system A. viscosus. Description: Biofilm assay, bactericidal activity against A. viscosus in a biofilm on a solid support. Type of series: cell-based. The conditions noted are these: 125 μg/mL, 1 hour incubation in test agent. How it is done:
(§1) A biofilm assay can be conducted to assess the bactericidal activity of the target compositions when the challenge organisms are contained within a biofilm. The semi-purified Vibrio gazogenes extract can be assayed for bactericidal activity against orally-relevant microbes contained in a biofilm grown on a solid support.
(§2) A biofilm assay was conducted to access the bactericidal activity of the target compounds when the challenge organisms are contained within a biofilm. The semi-purified Vibrio gazogenes extract was assayed for bactericidal activity against orally-relevant microbes contained in a biofilm grown on a solid support.

The subject of series [1] is A. actinomycetemcomitans. Kind of series: Minimum bactericidal concentration (MBC) against A. actinomycetemcomitans. Type of series: cell-based. The conditions noted are these: Aggregatibacter actinomycetemcomitans. The source says:
(§3) Minimum inhibitory concentrations (MIC) can be determined to identify the minimum concentration of a composition needed to inhibit the growth of the target organism using methods well known to those skilled in the art. Minimum bactericidal concentrations (MBC) can be determined to identify the minimum concentration of a composition needed to kill the target organism using methods well known to those skilled in the art. The MBC can be determined from the same plates set up for the MIC.
(§4) Cultures of Actinomyces viscosus, Streptococcus mutans, and Actinobacillus actinomycete-mcomitans were obtained from the American Type Culture Collection (ATCC) following instructions provided by ATCC. Frozen stocks of each bacteria were prepared by adding 10% (v/v) volume of glycerol to an overnight culture; aliquots of the resulting suspension were then frozen at −80° C.
(§5) Minimum inhibitory concentrations (MIC) were determined to identify the minimum concentration of a compound needed to inhibit the growth of the target organism. Minimum bactericidal concentrations (MBC) were determined to identify the minimum concentration of a compound needed to kill the target organism. The MBC was determined from the same plates set up for the MIC.

Series [2] has as its system Streptococcus mutans. Description: Minimum inhibitory concentration (MIC) against S. mutans. Type of series: cell-based.
Source text: as §3, §4, §5

A further series deals with S. mutans. Description: Biofilm assay, bactericidal activity against S. mutans in a biofilm on a solid support. Type of series: cell-based. The conditions noted are these: 125 μg/mL, 1 hour incubation in test agent. How it is done:
as §1, §2

Series [3] relates to Actinomyces viscosus. Description: Minimum inhibitory concentration (MIC) against A. viscosus. Type of series: cell-based.
Source text: as §3, §4, §5

Series [4] deals with A. actinomycetemcomitans. Description: Biofilm assay, bactericidal activity against A. actinomycetemcomitans in a biofilm on a solid support. Type of series: cell-based. The conditions noted are these: 125 μg/mL, 1 hour incubation in test agent. How it is done:
as §1, §2

The subject of series [5] is Actinomyces viscosus. Kind of series: Minimum bactericidal concentration (MBC) against A. viscosus. Type of series: cell-based.
Source text: as §3, §4, §5

Series [6] concerns Streptococcus mutans. Kind of series: Minimum bactericidal concentration (MBC) against S. mutans. Type of series: cell-based.
Source text: as §3, §4, §5

The test system of series [7] is A. actinomycetemcomitans. Kind of series: Minimum inhibitory concentration (MIC) against A. actinomycetemcomitans. Type of series: cell-based. The conditions noted are these: Aggregatibacter actinomycetemcomitans.
Source text: as §3, §4, §5

For series [8] the following is noted: clinical trials; cited from earlier work.

≈ marks a conversion by molar mass, not a printed value. Read-outs that look alike come from different tables or passages of the source. Bounds are passed on as bounds.

The LD50 is the dose at which mortality reaches 50%. Turning to magnesidin, the results for the LD50 in the series on mice (intraperitoneal) and in the series with mice (oral or subcutaneous) were 50 mg/kg and 1,000 mg/kg, respectively.
For `Oc1cc(Cl)ccc1Oc1ccc(Cl)cc1Cl` [Triclosan, 5-chloro-2-(2,4-dichlorophenoxy)-phenol], the “Microbial Biofilm Control (bacteria count after treatment)” value was 6.0 × 10^5 in the series on A. viscosus, 0 with S. mutans and 2.1 × 10^6 in the series on A. actinomycetemcomitans [4]. In addition, the values for the MBC against A. actinomycetemcomitans [1], with Actinomyces viscosus [5] and against Streptococcus mutans [6] were less than 0.75 µg/mL, 3.9 µg/mL (≈ 13.5 µM) and 15.6 µg/mL (≈ 53.9 µM), respectively. In addition, the values for the MIC in the series with Streptococcus mutans [2], against Actinomyces viscosus [3] and against A. actinomycetemcomitans [7] were 7.8 µg/mL (≈ 26.9 µM), 3.9 µg/mL (≈ 13.5 µM) and less than 0.75 µg/mL, respectively.
As to `[H]/N=C(\N/C(=N/[H])NCCCCCCNC(=N)NC(=N)Nc1ccc(Cl)cc1)Nc1ccc(Cl)cc1` [Chlorhexidine, chlorhexidine], the MBC in the series with A. actinomycetemcomitans [1] (A. actinomycetemcomitans, read-out: MBC) amounted to 3.9 µg/mL (≈ 7.72 µM); in the series with Actinomyces viscosus [5] (A. viscosus, read-out: MBC) it was 7.8 µg/mL (≈ 15.4 µM); with Streptococcus mutans [6] (S. mutans, read-out: MBC), 1.95 µg/mL (≈ 3.86 µM). The MIC in the series with Streptococcus mutans [2] (S. mutans, read-out: MIC) was 1.95 µg/mL (≈ 3.86 µM); with Actinomyces viscosus [3] (A. viscosus, read-out: MIC), 3.9 µg/mL (≈ 7.72 µM); in the series on A. actinomycetemcomitans [7] (A. actinomycetemcomitans, read-out: MIC) it was 3.9 µg/mL (≈ 7.72 µM).
Regarding `N=C(NCCCCCCNC(=N)NC(=N)Nc1ccc(Cl)cc1)NC(=N)Nc1ccc(Cl)cc1.O=C(O)[C@H](O)[C@@H](O)[C@H](O)[C@H](O)CO.O=C(O)[C@H](O)[C@@H](O)[C@H](O)[C@H](O)CO` [CHG, chlorhexidine digluconate], in [8], the reduced gingivitis is recorded as 50-80%.
